In patent publication US20070254894A1, “Novel small molecules with selective cytotoxicity against human microvascular endothelial cell proliferation” (priority 2006, published 2007):
Where a name gives a salt, the structure may show the parent alone. Read-outs that look alike come from different tables or passages of the source.

Columns and labels:
[1] = test system: HMVEC cells stimulated with VEGF 165; test: VEGF driven HMVEC proliferation screen; assay type: cell-based
Procedure: (§1) HMVEC cells were plated on collagen-coated plates at 2500 cells/well for 24 hours. Various concentrations of test compounds were then added to duplicate plates. […] Anti-FGF antibody (final concentration of 5 μg/mL) was added to four control wells as a standard inhibitor. At the same time the compounds were added, a T-zero plate was generated (Alamar blue was added to a plate and read after three hours). The plates with the compounds were incubated for one hour at 37° C., 5% carbon dioxide. At this point, b-FGF was added (final concentration of 2.5 ng/mL). Tween-20 (10 μL) was added to four additional control wells to represent total death and the plates were returned to the carbon dioxide incubator for 6 days.
The assay was run identically using VEGF in place of b-FGF. The final concentration of VEGF 165, in this mode, was 10 ng/mL. The control inhibitor was anti-VEGF antibody (final concentration of […]). All other conditions were the same.

[2] = test system: Primary Human Dermal Fibroblasts; test: in vitro; conditions: read-out: D. Fibroblast LC50; 6 days, Alamar blue
Procedure: In parallel with the VEGF and FGF screens, a normal cell toxicity assay was run. Primary Human Dermal Fibroblasts (Clonetics) were plated at 5000 cells/well. After 24 hours various concentrations of test compounds, were added in duplicate plates and 10% Tween-20 was added to four control wells to represent total death. At the same time a T-zero plate was generated. The plates were returned to the carbon dioxide incubator and on day 6 Alamar blue was added and the plates read after 3 hours.
Using a T-zero plate allows the observation of compounds that cause the cells to become static as well as inhibit growth.

[3] = test system: HMVEC cells stimulated with b-FGF; test: b-FGF driven HMVEC proliferation screen; assay type: cell-based
Procedure: as §1

[4] = VEGF 165 10 ng/mL, 6 days, Alamar blue, read-out: VEGF LC50
[5] = b-FGF 2.5 ng/mL, 6 days, Alamar blue, read-out: b-FGF LC50
[6] = Homo sapiens, HMVEC, 144 h, VEGF 165 10 ng/mL, 6 days, Alamar blue, read-out: VEGF LC50
[7] = Homo sapiens, HMVEC, 144 h, b-FGF 2.5 ng/mL, 6 days, Alamar blue, read-out: b-FGF LC50

Compound | CC50 [2] | CC50 [1] | CC50 [3] | also measured
O=C(Nc1cc(-c2ccccc2)cc2cccnc12)c1ccccn1 [Compound 10] | > 10000 nM |  |  | CC50 [1, 4]: 260 nM; CC50 [3, 5]: 380 nM
Cc1ccc2cccc(NC(=O)c3ccccn3)c2n1 [Compound 6] | > 10000 nM | 3900 nM | 3200 nM | 
O=C(Nc1cccc2nccnc12)c1ccccn1 [Compound 77] | > 10000 nM |  |  | CC50 [1, 4]: 170 nM; CC50 [3, 5]: 180 nM
CN1CCC[C@H]1C(=O)Nc1cccc2cccnc12 [Compound 108, (S)-1-methyl-pyrrolidine-2-carboxylic acid quinolin-8-ylamide L-tartrate salt] | > 10000 nM |  |  | CC50 ([1]; VEGF 165 10 ng/mL, 6 days, Alamar blue, L-tartrate salt, read-out: VEGF LC50): 290 nM; CC50 ([3]; b-FGF 2.5 ng/mL, 6 days, Alamar blue, L-tartrate salt, read-out: b-FGF LC50): 220 nM
O=C(Nc1cc(Cl)cc2cccnc12)c1ccccn1 [Compound 4] | > 10000 nM | 120 nM | 110 nM | 
O=C(Nc1cccc2cccnc12)c1cc(N2CCC(N3CCCC3)CC2)ccn1 [Compound 42] | 3600 nM |  |  | CC50 [1, 4]: 42 nM; CC50 [3, 5]: 33 nM
Cc1ccc(NS(=O)(=O)c2ccccn2)c2ncccc12 [Compound 74] | > 10000 nM | 120 nM | 110 nM | 
CCN1CCN(c2ccnc(C(=O)Nc3cccc4cccnc34)c2)CC1 [Compound 41] | 4200 nM | 17 nM | 18 nM | 
O=C(Nc1cc(OCCN2CCOCC2)cc2cccnc12)c1ccccn1 [Compound 99] |  |  |  | CC50 [1, 6]: 28 nM; CC50 [3, 7]: 31 nM
CN1CCN(c2ccc(NC(=O)c3ccccn3)c3ncccc23)CC1 [Compound 19] | > 10000 nM |  |  | CC50 [1, 4]: 28 nM; CC50 [3, 5]: 28 nM
O=C(Nc1cccc2cccnc12)c1cc(SCc2ccccc2)ccn1 [Compound 45] | > 10000 nM |  |  | CC50 [1, 4]: 61 nM; CC50 [3, 5]: 190 nM
CN(C)CCN(C)c1ccc(NC(=O)c2ccccn2)c2ncccc12 [Compound 21] | > 10000 nM |  |  | CC50 [1, 4]: 3700 nM; CC50 [3, 5]: 2400 nM
O=C(Nc1cccc2cccnc12)c1ncccc1OCCN1CCOCC1 [Compound 48] |  | 950 nM | 1600 nM | 
CCN(CC)c1ccccc1NC(=O)c1ccccn1 [Compound 84] | > 10000 nM | 1600 nM | 1500 nM | 
O=C(Nc1cccc2cccnc12)c1cc(N2CCOCC2)ccn1 [Compound 30] | 8000 nM | 22 nM | 26 nM | 
O=C(Nc1cc(C(F)(F)F)cc2cccnc12)c1ccccn1 [Compound 5] | > 10000 nM | 160 nM | 120 nM | 
O=C(Nc1cccc2cccnc12)c1cc(NCCN2CCOCC2)ccn1 [Compound 35] | > 10000 nM | 120 nM | 160 nM | 
O=C(Nc1cccc2cccnc12)c1cc(N2CCSCC2)ccn1 [Compound 44] | > 10000 nM |  |  | CC50 [1, 4]: 180 nM; CC50 [3, 5]: 250 nM
O=C(Nc1cccc2cccnc12)c1cc(N2CCN(CCO)CC2)ccn1 [Compound 39] | > 10000 nM | 220 nM | 650 nM | 

Compound | CC50 [2] | CC50 [1] | CC50 [3] | also measured
Cc1cc(NC(=O)c2ccccn2)c2ncccc2c1C [Compound 17] | > 10000 nM | 160 nM | 130 nM | 
O=C(Nc1cccc2cccnc12)c1cc(N2CCCCC2)ccn1 [Compound 43] | > 10000 nM |  |  | CC50 [1, 4]: 400 nM; CC50 [3, 5]: 220 nM
CN1CCC[C@H]1C(=O)Nc1cccc2cccnc12 [Compound 58, (S)-1-methyl-pyrrolidine-2-carboxylic acid quinolin-8-ylamide] | > 10000 nM |  |  | CC50 [1, 4]: 190 nM; CC50 [3, 5]: 170 nM
O=C(Nc1ccc(Oc2ccccc2)c2cccnc12)c1ccccn1 [Compound 12] | > 10000 nM |  |  | CC50 [1, 4]: 1000 nM; CC50 [3, 5]: 1000 nM
COc1ccc(NC(=O)c2ccccn2)c2ncccc12 [Compound 3] | > 10000 nM |  |  | CC50 [1, 4]: 120 nM; CC50 [3, 5]: 110 nM
O=C(Nc1cccc2cccnc12)c1cccc(Br)n1 [Compound 26] | > 10000 nM | 86 nM | 120 nM | 
O=S(=O)(Nc1cc(Cl)c(Cl)c2cccnc12)c1ccccn1 [Compound 73] | > 10000 nM | 1100 nM | 1000 nM | 
O=C(Nc1cc(N2CCOCC2)cc2cccnc12)c1ccccn1 [Compound 13] | > 10000 nM | 25 nM | 26 nM | 
CN(C)c1c(NC(=O)c2ccccn2)ccc(Cl)c1Cl [Compound 91] | > 10000 nM | 3500 nM | 2400 nM | 
O=C(Nc1cc(Cl)c(Cl)c2cccnc12)c1ccccn1 [Compound 15] | > 10000 nM | 210 nM | 220 nM | 
O=C(Nc1cccc2cccnc12)c1cc(N2CCC(O)CC2)ccn1 [Compound 37] | > 10000 nM | 290 nM | 310 nM | 
Cc1cccnc1C(=O)Nc1cccc2cccnc12 [Compound 24] | > 10000 nM | 140 nM | 150 nM | 
O=C(Nc1ccc(Cl)c2cccnc12)c1ccccn1 [Compound 18] | > 10000 nM | 170 nM | 200 nM | 
O=C(Nc1cc(OCCN2CCOCC2)cc2cccnc12)c1ccccn1 [Compound 20] |  | 30 nM | 31 nM | 
CN1CCCN(c2ccnc(C(=O)Nc3cccc4cccnc34)c2)CC1 [Compound 38] | > 10000 nM | 26 nM | 25 nM | 
CN(C)CCCOc1cccnc1C(=O)Nc1cccc2cccnc12 [Compound 49] | > 10000 nM |  |  | CC50 [1, 4]: 1700 nM; CC50 [3, 5]: 2500 nM
CN(C)c1ccccc1NC(=O)c1ccccn1 [Compound 80] | > 10000 nM | 770 nM | 830 nM | 
O=C(Nc1cccc2cccnc12)c1cc(-c2ccccc2)ccn1 [Compound 27] | > 10000 nM |  |  | CC50 [1, 4]: 640 nM; CC50 [3, 5]: 950 nM
CC(C)N(C)c1ccccc1NC(=O)c1ccccn1 [Compound 83] | > 10000 nM | 9600 nM | 6500 nM | 

Compound | CC50 [2] | CC50 [1] | CC50 [3] | also measured
Cc1cccc(C(=O)Nc2cccc3cccnc23)n1 [Compound 25] | > 10000 nM | 2500 nM | 2300 nM | 
CCCN(C)c1ccccc1NC(=O)c1ccccn1 [Compound 82] | > 10000 nM | 2000 nM | 1300 nM | 
O=C(Nc1ccccc1N1CCCC1)c1ccccn1 [Compound 79] | > 10000 nM | 8000 nM | 6500 nM | 
O=C(Nc1cccc2cccnc12)c1ncccc1OCCN1CCOCC1 [Compound 104] |  |  |  | CC50 [1, 6]: 810 nM; CC50 [3, 7]: 1400 nM
CCOc1cc(NC(=O)c2ccccn2)c2ncccc2c1 [Compound 8] | > 10000 nM | 96 nM | 81 nM | 
COc1cc(NS(=O)(=O)c2ccccn2)c2ncccc2c1 [Compound 72] | > 10000 nM | 170 nM | 240 nM | 
O=C(Nc1cccc2cccnc12)c1ncccc1O [Compound 46] | > 10000 nM | 51 nM | 66 nM | 
O=C(Nc1cccc2cccnc12)c1cc(N2CCN(Cc3ccccc3)CC2)ccn1 [Compound 36] | > 10000 nM |  |  | CC50 [1, 4]: 840 nM; CC50 [3, 5]: 900 nM
O=C(Nc1cccc2cccnc12)c1ccc(-c2ccccc2)cn1 [Compound 33] | > 10000 nM |  |  | CC50 [1, 4]: 4700 nM; CC50 [3, 5]: 6100 nM
Cc1ccc(NC(=O)c2ccccn2)c2ncccc12 [Compound 14] | > 10000 nM | 130 nM | 170 nM | 
CCCOc1cccnc1C(=O)Nc1cccc2cccnc12 [Compound 23] | > 10000 nM | 180 nM | 210 nM | 
CN1CCN(c2ccnc(C(=O)Nc3cccc4cccnc34)c2)CC1 [Compound 34, 4-(4-methylpiperazin-1-yl)pyridine-2-carboxylic acid quinolin-8-ylamide] | > 10000 nM |  |  | CC50 [1, 4]: 13 nM; CC50 [3, 5]: 18 nM
CCN(C)c1c(NC(=O)c2ccccn2)ccc(Cl)c1Cl [Compound 92] | > 10000 nM | 8200 nM | 7900 nM | 
O=C(Nc1cccc2cccnc12)c1ccccn1 [Compound 1] |  | 65 nM | 61 nM | 
COc1cc(NC(=O)c2ccccn2)c2ncccc2c1 [Compound 2] | 3400 nM | 38 nM | 31 nM | 
Cc1cc(NC(=O)c2ccccn2)c2ncccc2c1 [Compound 11] | > 10000 nM | 73 nM | 68 nM | 
CCN(CCN(C)C)c1ccnc(C(=O)Nc2cccc3cccnc23)c1 [Compound 40] | 7600 nM | 16 nM | 21 nM | 
COc1ccnc(C(=O)Nc2cccc3cccnc23)c1 [Compound 29] | > 10000 nM | 60 nM | 69 nM | 
